Legend:
[1] = test system: Blumeria graminis fsp. hordei; experiment: In vivo preventive Blumeria test (barley); conditions: 168 h, 500 ppm of active ingredient, preventive spray, evaluated 7 days after inoculation, read-out: efficacy
Description: Example E: In Vivo Preventive Blumeria Test (Barlev) [table] To produce a suitable preparation of active compound, 1 part by weight of active compound or active compound combination was mixed with the stated amounts of solvent and emulsifier, and the concentrate was diluted with water to the desired concentration. To test for preventive activity, young plants were sprayed with the preparation of active compound or active compound combination at the stated rate of application. After the spray coating had been dried, the plants were dusted with spores of Blumeria graminis fsp. hordei. The plants were placed in the greenhouse at a temperature of approximately 18° C. and a relative atmospheric humidity of approximately 80% to promote the development of mildew pustules. The test was evaluated 7 days after the inoculation. 0% means an efficacy which corresponds to that of the untreated control, while an efficacy of 100% means that no disease is observed.

Septoria tritici = experiment: In vivo preventive test on Septoria tritici (leaf spot on wheat); conditions: Zymoseptoria tritici, 576 h, 500 ppm of active ingredient, preventive spray, evaluated 24 days after inoculation, read-out: efficacy
Description: Example B: In Vivo Preventive Test on Septoria tritici (Leaf Spot on Wheat) [table] The active ingredients were made soluble and homogenized in a mixture of dimethyl sulfoxide/acetone//Tween® 80 and then diluted in water to the desired concentration. Young plants of wheat were treated by spraying the active ingredient prepared as described above. Control plants were treated only with an aqueous solution of acetone/dimethyl sulfoxide/Tween® 80. After 24 hours, the plants were contaminated by spraying the leaves with an aqueous suspension of Septoria tritici spores. The contaminated wheat plants were incubated for 72 hours at 18° C. and at 100% relative humidity and then for 21 days at 20° C. and at 90% relative humidity. The test was evaluated 24 days after the inoculation. 0% means an efficacy which corresponds to that of the control plants while an efficacy of 100% means that no disease was observed.

[2] = Log P by HPLC on reversed phase columns (EEC directive 79/831 Annex V.A8); type: physicochemical; conditions: method [a]: LC-UV, acidic range, 0.1% formic acid in water and acetonitrile; for chromatographic logP: reversed phase HPLC columns
Description: Log P values: Measurement of Log P values was performed according to EEC directive 79/831 Annex V.A8 by HPLC (High Performance Liquid Chromatography) on reversed phase columns with the following methods: • ^[a] Log P value is determined by measurement of LC-UV, in an acidic range, with 0.1% formic acid in water and acetonitrile as eluent (linear gradient from 10% acetonitrile to 95% acetonitrile). • ^[b] Log P value is determined by measurement of LC-UV, in a neutral range, with 0.001 molar ammonium acetate solution in water and acetonitrile as eluent (linear gradient from 10% acetonitrile to 95% acetonitrile). • ^[c] Log P value is determined by measurement of LC-UV, in an acidic range, with 0.1% phosphoric acid and acetonitrile as eluent (linear gradient from 10% acetonitrile to 95% acetonitrile). If more than one Log P value is available within the same method, all the values are given and separated by “+”. Calibration was done with straight-chain alkan2-ones (with 3 to 16 carbon atoms) with known Log P values (measurement of Log P values using retention times with linear interpolation between successive alkanones). Lambda-max-values were determined using UV-spectra from 200 nm to 400 nm and the peak values of the chromatographic signals.

Sphaerotheca fuliginea = experiment: In vivo preventive test on Sphaerotheca fuliginea (powdery mildew on cucurbits); conditions: Podosphaera fuliginea, 360 h; 500 ppm of active ingredient; gherkin, preventive spray, evaluated 15 days after inoculation; read-out: efficacy
Description: Example C: In Vivo Preventive Test on Sphaerotheca fuliginea (Powdery Mildew on Cucurbits) [table] The active ingredients were made soluble and homogenized in a mixture of dimethyl sulfoxide/acetone//Tween® 80 and then diluted in water to the desired concentration. Young plants of gherkin were treated by spraying the active ingredient prepared as described above. Control plants were treated only with an aqueous solution of acetone/dimethyl sulfoxide/Tween® 80. After 24 hours, the plants were contaminated by spraying the leaves with an aqueous suspension of Sphaerotheca fuliginea spores. The contaminated gherkin plants were incubated for 72 hours at 18° C. and at 100% relative humidity and then for 12 days at 20° C. and at 70-80% relative humidity. The test was evaluated 15 days after the inoculation. 0% means an efficacy which corresponds to that of the control plants while an efficacy of 100% means that no disease was observed.

Puccinia recondita = experiment: In vivo preventive test on Puccinia recondita (brown rust on wheat); conditions: 264 h, 500 ppm of active ingredient, preventive spray, evaluated 11 days after inoculation, read-out: efficacy
Description: (§1) Example A: In Vivo Preventive Test on Puccinia recondita (Brown Rust on Wheat) [table] The active ingredients were made soluble and homogenized in a mixture of dimethyl sulfoxide/acetone//Tween® 80 and then diluted in water to the desired concentration. Young plants of wheat were treated by spraying the active ingredient prepared as described above. Control plants were treated only with an aqueous solution of acetone/dimethyl sulfoxide/Tween® 80. After 24 hours, the plants were contaminated by spraying the leaves with an aqueous suspension of Puccinia recondita spores. The contaminated wheat plants were incubated for 24 hours at 20° C. and at 100% relative humidity and then for 10 days at 20° C. and at 70-80% relative humidity. The test was evaluated 11 days after the inoculation. 0% means an efficacy which corresponds to that of the control plants while an efficacy of 100% means that no disease was observed.

Uromyces appendiculatus = experiment: In vivo preventive test on Uromyces appendiculatus (bean rust); conditions: 264 h, 500 ppm of active ingredient, preventive spray, evaluated 11 days after inoculation, read-out: efficacy
Description: as §1, with “D:” for “A:”, “Uromyces appendiculatus (Bean Rust)” for “Puccinia recondita (Brown Rust on Wheat)”, “bean” for “wheat”, “Uromyces appendiculatus” for “Puccinia recondita”

With OC(Cn1cncn1)c1ccc(Oc2ccc(Br)nc2)nc1C(F)(F)F (stereo not drawn) [I-12, 1-[6-[(6-bromo-3-pyridyl)oxy]-2-(trifluoromethyl)-3-pyridyl]-2-(1,2,4-triazol-1-yl)ethanol] the pest or weed control at 500 ppm [1] was 90 to 100%, the pest or weed control at 500 ppm (Septoria tritici) was 90 to 100% and the chromatographic logP ([2]; compounds of formula (I)) was 2.03. It also gave a pest or weed control at 500 ppm (Sphaerotheca fuliginea) of 90 to 100%, a pest or weed control at 500 ppm (Puccinia recondita) of 80 to 89% and a pest or weed control at 500 ppm (Uromyces appendiculatus) of 90 to 100%.

In the case of CC(=O)c1ccc(Oc2ccc(C)nc2)nc1Cl [V-09], the LogP ([2]; compounds of formula (V)) was 1.42^[a].

In the case of O=C(CCl)c1ccc(Oc2ccc(Cl)nc2)nc1Cl [VI-03], the LogP ([2]; compounds of formula (VI)) was 3.00^[a].

For O=C(CCl)c1cnc(Oc2ccc(C(F)(F)F)nc2)cc1C(F)(F)F [VI-04], the LogP ([2]; compounds of formula (VI)) was 3.64^[a].

For CC(=O)c1cnc(Oc2ccc(Cl)nc2)cc1Cl [V-10], the LogP ([2]; compounds of formula (V)) was 2.59^[a].

In the case of CC(=O)c1ccc(Oc2ccc(Br)nc2)nc1C(F)(F)F [V-01, 1-[6-[(6-bromo-3-pyridyl)oxy]-2-(trifluoromethyl)-3-pyridyl]ethanone], the chromatographic logP ([2]; compounds of formula (V)) was 3.12.

In the case of OC(Cn1cncn1)c1ccc(Oc2ccc(Cl)nc2)nc1Cl (stereo not drawn) [I-11], the LogP ([2]; compounds of formula (I)) was 1.79^[a].

O=C(Cn1cncn1)c1ccc(Oc2ccc(Br)nc2)nc1C(F)(F)F [VII-01, 1-[6-[(6-bromo-3-pyridyl)oxy]-2-(trifluoromethyl)-3-pyridyl]-2-(1,2,4-triazol-1-yl)ethanone] showed a pest or weed control at 500 ppm (Septoria tritici) of 90 to 100%, a chromatographic logP ([2]; compounds of formula (VII)) of 2.23 and a pest or weed control at 500 ppm (Sphaerotheca fuliginea) of 90 to 100%. It also gave a pest or weed control at 500 ppm (Puccinia recondita) of 80 to 89% and a pest or weed control at 500 ppm (Uromyces appendiculatus) of 90 to 100%.

In the case of O=C(Cn1cncn1)c1cnc(Oc2ccc(C(F)(F)F)nc2)cc1C(F)(F)F [VII-04], the LogP ([2]; compounds of formula (VII)) was 2.66^[a].

In the case of O=C(Cn1cncn1)c1ccc(Oc2ccc(C(F)(F)F)nc2)nc1C(F)(F)F [VII-02, 2-(1,2,4-triazol-1-yl)-1-[2-(trifluoromethyl)-6-[[6-(trifluoromethyl)-3-pyridyl]oxy]-3-pyridyl]ethanone], the pest or weed control at 500 ppm (Septoria tritici) was 90 to 100%, the chromatographic logP ([2]; compounds of formula (VII)) was 2.43 and the pest or weed control at 500 ppm (Sphaerotheca fuliginea) was 90 to 100%. It also gave a pest or weed control at 500 ppm (Puccinia recondita) of 80 to 89% and a pest or weed control at 500 ppm (Uromyces appendiculatus) of 90 to 100%.

For CC(O)(Cn1cncn1)c1ccc(Oc2ccc(Cl)nc2)nc1Cl (stereo not drawn) [I-03], the LogP ([2]; compounds of formula (I)) was 2.04^[a].

In the case of CC(=O)c1ccc(Oc2ccc(Cl)nc2)nc1Cl [V-03], the LogP ([2]; compounds of formula (V)) was 2.66^[a].

In the case of OC(Cn1cncn1)c1cnc(Oc2ccc(C(F)(F)F)nc2)cc1C(F)(F)F (stereo not drawn) [I-08], the LogP ([2]; compounds of formula (I)) was 2.35^[a].

CC(=O)c1ccc(Oc2ccc(C(F)(F)F)nc2)nc1C(F)(F)F [V-02, 1-[2-(trifluoromethyl)-6-[[6-(trifluoromethyl)-3-pyridyl]oxy]-3-pyridyl]ethanone] gave a chromatographic logP ([2]; compounds of formula (V)) of 3.26.

With O=C(Cn1cncn1)c1ccc(Oc2ccc(Cl)nc2)nc1Cl [VII-03] the LogP ([2]; compounds of formula (VII)) was 1.99^[a].

With O=C(Cn1cncn1)c1cnc(Oc2ccc(Br)nc2)cc1C(F)(F)F [VII-07] the LogP ([2]; compounds of formula (VII)) was 2.94^[a].

For O=C(Cn1cncn1)c1ccc(Oc2ccc(Cl)nc2)nc1C(F)(F)F [VII-05], the LogP ([2]; compounds of formula (VII)) was 2.23^[a].

OC(Cn1cncn1)c1cnc(Oc2ccc(Cl)nc2)cc1C(F)(F)F (stereo not drawn) [I-14, 1-[6-[(6-chloro-3-pyridyl)oxy]-4-(trifluoromethyl)-3-pyridyl]-2-(1,24-triazol-1-yl)ethanol] gave a pest or weed control at 500 ppm [1] of 90 to 100%, a pest or weed control at 500 ppm (Septoria tritici) of 90 to 100% and a chromatographic logP ([2]; compounds of formula (I)) of 1.99. The pest or weed control at 500 ppm (Sphaerotheca fuliginea) was 90 to 100%, the pest or weed control at 500 ppm (Puccinia recondita) was 90 to 100% and the pest or weed control at 500 ppm (Uromyces appendiculatus) was 90 to 100%.

In the case of O=C(CCl)c1ccc(Oc2ccc(C(F)(F)F)nc2)nc1C(F)(F)F [VI-02, 2-chloro-1-[2-(trifluoromethyl)-6-[[6-(trifluoromethyl)-3-pyridyl]oxy]-3-pyridyl]ethanone], the chromatographic logP ([2]; compounds of formula (VI)) was 3.6.

In the case of CC(=O)c1cnc(Oc2ccc(C(F)(F)F)nc2)cc1C(F)(F)F [V-04], the LogP ([2]; compounds of formula (V)) was 3.44^[a].

In the case of CC(=O)c1ccc(Oc2ccc(F)nc2)nc1Cl [V-08], the LogP ([2]; compounds of formula (V)) was 2.39^[a].

In the case of CC(=O)c1cnc(Oc2ccc(Br)nc2)cc1C(F)(F)F [V-07], the LogP ([2]; compounds of formula (V)) was 3.17^[a].

With OC(Cn1cncn1)c1ccc(Oc2ccc(Cl)nc2)nc1C(F)(F)F (stereo not drawn) [I-10] the LogP ([2]; compounds of formula (I)) was 2.07^[a].

In the case of O=C(CCl)c1ccc(Oc2ccc(Cl)nc2)nc1C(F)(F)F [VI-05], the LogP ([2]; compounds of formula (VI)) was 3.27^[a].

O=C(CCl)c1ccc(Oc2ccc(Br)nc2)nc1C(F)(F)F [VI-01, 1-[6-[(6-bromo-3-pyridyl)oxy]-2-(trifluoromethyl)-3-pyridyl]-2-chloro-ethanone] gave a chromatographic logP ([2]; compounds of formula (VI)) of 3.44.

In the case of O=C(Cn1cncn1)c1cnc(Oc2ccc(Cl)nc2)cc1C(F)(F)F [VII-06, 1-[6-[(6-chloro-3-pyridyl)oxy]-4-(trifluoromethyl)-3-pyridyl]-2-(1,2,4-triazol-1-yl)ethanone], the pest or weed control at 500 ppm (Septoria tritici) was 80 to 89%, the chromatographic logP ([2]; compounds of formula (VII)) was 2.21 and the pest or weed control at 500 ppm (Sphaerotheca fuliginea) was 90 to 100%.

Work on CC(=O)c1cnc(Oc2ccc(Cl)nc2)cc1C(F)(F)F [V-06, 1-[6-[(6-chloro-3-pyridyl)oxy]-4-(trifluoromethyl)-3-pyridyl]ethanone] yielded a chromatographic logP ([2]; compounds of formula (V)) of 3.

With CC(=O)c1ccc(Oc2ccc(Cl)nc2)nc1C(F)(F)F [V-05] the LogP ([2]; compounds of formula (V)) was 3.00^[a].

Source: US20200017467A1, “NOVEL TRIAZOLE DERIVATIVES” (BAYER CROPSCIENCE AKTIENGESELLSCHAFT, priority 2017, published 2020)
